The source of these data is patent publication US5840732A, “Imidazopyridine or imidazopyrimidine compounds, their production and use” (Takeda Chemical Industries Ltd., priority 1994, dated 1998).

In test [1] the test system is ICAM-1 expression in human umbilical cord vascular endothelial cells. The test can be described thus: Inhibitory activity of adhesion molecule expression (ICAM-1, cell-ELISA). The note with it: TNFα 1 ng/ml, 37° C., 5 hours. The test is classed as cell-based. As to the method:
(§1) Inhibitory activity of adhesion molecule expression
(§2) Test method: To human umbilical cord vascular endothelial cells (purchased from Kurabo), cultured on gelatin-coated plates, compounds at various concentrations (test compounds) were added, followed by incubation at 37° C. for 15 minutes. Human tumor necrosis factor (TNFα, purchased from Genzyme) was then added to a final concentration of 1 ng/ml, followed by incubation at 37° C. for 3 hours for ELAM-1 expression or for 5 hours for ICAM-1 expression. After the reaction, cells were fixed with glutaraldehyde; the amounts of ELAM-1 and ICAM-1 expressed were determined by cell-ELISA. Anti-ELAM-1 antibody BBA-2 and an anti-ICAM-1 antibody BBA-4 were used as the first antibodies for the defection of ELAM-1 and ICAM-1, respectively, and horse radish peroxidase-labeled rabbit anti-mouse IgG antibody was used as the second antibody to determine the amount of adhesion molecules expressed on cells observed. The compound concentration at which 50% expression was expressed as the 50% inhibitory concentration (IC50), with the amount of expression in the absence of compounds as 100 and the amount of expression in the absence of TNFα as 0.

Test [2] concerns Wistar fatty rats (rat model of hereditary obese diabetes mellitus). As to the kind of experiment: Diabetic nephritis improving action in Wistar fatty rats. The test is classed as in vivo, rat (male Wistar fatty). The note with it: 50 mg/kg/day oral, 12 weeks, n=6, mean ± standard deviation; for Urinary Albumin: control 35.69 ± 15.44 (for 2), 24.53 ± 7.19 (for 3); for Urinary Total Protein: control 145.19 ± 34.99 (for 2), 131.53 ± 22.81 (for 3), both p < 0.05 vs control; for Plasma Glucose: control 352.00 ± 36.09 (for 2), 368.83 ± 24.35 (for 3), 3: p < 0.05 vs control. As to the method:
Diabetic nephritis improving action in Wistar fatty rats (rat model of hereditary obese diabetes mellitus)
Test method: Male Wistar fatty rats at 9 weeks of age were divided into two groups according to plasma glucose level, urinary total protein excretion and body weight: a control group and a test compound group (n=6). The test compound, in suspension in 0.5% methyl cellulose (Wako Pure Chemical) at 2 ml/kg, was orally administered by gavage once a day for 12 consecutive weeks. For the control group, only the 0.5% methyl cellulose suspension was orally administered in the same manner as the test compounds. At every 3 weeks, plasma glucose, urinary total protein and albumin excretion were quantitated by the enzyme method, the Lowry method (Journal of Biological Chemistry, Vol. 193, pp. 265-275 (1951)] and the method of Mohamed et al. [Journal of Immunology Methods, Vol. 74, pp. 17-22 (1984)], respectively.

Test [3] relates to ELAM-1 expression in human umbilical cord vascular endothelial cells. The test can be described thus: Inhibitory activity of adhesion molecule expression (ELAM-1, cell-ELISA). The note with it: TNFα 1 ng/ml, 37° C., 3 hours. The test is classed as cell-based. As to the method: as §1, §2
The test system of a further test is mouse skin allograft. The test can be described thus: Immunosuppressive action on mouse skin allograft. The test is classed as in vivo, mouse (BIOBR donors, C57BL/10 recipients). The note with it: 16 days. How it is done: Immunosuppressive action on mouse skin allograft
Test method: Male BIOBR mice and C57BL/10 mice, both at 6 weeks of age, were used as donors and recipients, respectively, and Grafts were prepared by killing donors by cervical vertebral dislocation, collecting full-thickness skin grafts from tail using a razor and tweezers, and cutting them into about 5 mm square pieces. Each graft was kept standing on gauze soaked with physiological saline, and used as soon as the recipient was prepared. Transplantation beds were prepared as follows. The recipient's back was clipped using clippers and sterilized with Isodine. Under ether anesthesia, back skin was picked up with tweezers, and a full-thickness skin graft was cut out into an about 5 mm square piece using scissors. The graft was transferred to the transplantation bed thus prepared, and fixed firmly using bandage. At 7 days after surgery, the bandage was removed, and the mice were observed every day to determine the day of complete necrosis of the graft as the rejection day. The compound was intraperitoneally administered in suspension in 5% gum arabic for 16 days after surgery.

Turning to `CCCC=C1SC(=O)N(CCCCSc2cccc3nccn23)C1=O` [compound 2], the IC50 in test [1] is 3 µM. Moreover, in test [2], the “Urinary Albumin” value is 20.49 ± 6.95 mg/day, the “Urinary Total Protein” value is 96.64 ± 18.31 mg/day and the “Plasma Glucose” value is 333.67 ± 46.41 mg/dL. In test [3], the midpoint of inhibition, the IC50, lay at 2.9 µM.

Consider `CCCC=C1SC(=O)N(CCCCCc2cccc3nccn23)C1=O` [compound 3], for which the midpoint of inhibition in test [1], the IC50, lay at 4.2 µM. For the same compound, in test [2], the “Urinary Albumin” value came to 22.34 ± 7.24 mg/day, the “Urinary Total Protein” value amounted to 97.61 ± 16.26 mg/day and the “Plasma Glucose” value worked out at 253.17 ± 34.14 mg/dL. The compound further showed an IC50 in test [3] of 5 µM.

Turning to `CCCC=C1SC(=O)N(CCCCOc2cccn3ccnc23)C1=O` [compound 22], the “Mean Rejection Day” value in the test with mouse skin allograft (50 mg/kg/day intraperitoneal, control 13.0) is 18.8 days. Further, the figures for the IC50 in test [1] and in test [3] were 4.6 µM and 2.9 µM, respectively.

Take `O=c1c(-c2ccccc2)c2n(c(=O)n1CCCCSc1cccc3nccn13)CCCS2(=O)=O` [compound 24]: the “Mean Rejection Day” value with mouse skin allograft (10 mg/kg/day intraperitoneal, control 13.5) amounted to 27.0 days. For the same compound, the results for the half-maximal inhibitory concentration (IC50) in test [1] and in test [3] were 1.1 µM and 0.8 µM, respectively.
